Test results reported in US11566039B2, “Lincosamide antibiotics and uses thereof” (President and Fellows of Harvard College, priority 2017, dated 2023).
In brackets after ≈: the same amount, converted by molar mass.

Assays:
Format in all cases: cell-based
[1] = test system: S. aureus ATCC 29213; assay: MIC against S. aureus ATCC 29213; details: Staphylococcus aureus, ATCC29213, S. aureus ATCC 29213; read-out: MIC
[2] = test system: S. aureus BAA 977 iErmA; assay: MIC against S. aureus BAA 977 iErmA; details: Staphylococcus aureus, BAA977
[3] = test system: S. pneumoniae ATCC 49619; assay: MIC against S. pneumoniae ATCC 49619; details: Streptococcus pneumoniae, ATCC49619, S. pneumoniae ATCC 49619; read-out: MIC
[4] = test system: S. pyogenes ATCC 19615; assay: MIC against S. pyogenes ATCC 19615; details: Streptococcus pyogenes, ATCC19615, S. pyogenes ATCC 19615; read-out: MIC
[5] = test system: E. faecalis ATCC 29212; assay: MIC against E. faecalis ATCC 29212; details: Enterococcus faecalis, ATCC29212, E. faecalis ATCC 29212; read-out: MIC
[6] = test system: K. pneumoniae ATCC 10031; assay: MIC against K. pneumoniae ATCC 10031; details: Klebsiella pneumoniae, ATCC10031, read-out: MIC
[7] = test system: E. coli ATCC 25922; assay: MIC against E. coli ATCC 25922; details: Escherichia coli, ATCC25922, read-out: MIC
[8] = test system: E. coli MP-9 ΔTolC; assay: MIC against E. coli MP-9 ΔTolC; details: Escherichia coli
[9] = test system: E. coli MP-74 LptD mutant; assay: MIC against E. coli MP-74 LptD mutant; details: Escherichia coli
[10] = test system: S. aureus MP-549 msr(a) USA 300; assay: MIC against S. aureus MP-549 msr(a) USA 300; details: Staphylococcus aureus, USA300, S. aureus MP-549 msr(a) USA 300
[11] = test system: C. difficile BAA 1805; assay: MIC against C. difficile BAA 1805; details: Clostridioides difficile, BAA1805
[12] = test system: H. influenzae ATCC 49247; assay: MIC against H. influenzae ATCC 49247; details: Haemophilus influenzae, ATCC49247, H. influenzae ATCC 49247; read-out: MIC
[13] = test system: B. fragilis ATCC 25285; assay: MIC against B. fragilis ATCC 25285; details: Bacteroides fragilis, ATCC25285

## CCC[C@@H]1C[C@@H](C(=O)N[C@H]([C@H](C)NC(=N)N)[C@H]2OC(SC)[C@H](O)C(O)C2O)N(C)C1 (stereo partly drawn) [FSA-215059]
[1]
  MIC: 32 µg/mL (≈ 71.5 µM)
[2]
  MIC: 32 µg/mL (≈ 71.5 µM)
[3]
  MIC: 8 µg/mL (≈ 17.9 µM)
[4]
  MIC: 4 µg/mL (≈ 8.94 µM)
[5]
  MIC: > 64 µg/mL
[6]
  MIC: > 64 µg/mL
[7]
  MIC: > 64 µg/mL
[8]
  MIC: > 64 µg/mL
[9]
  MIC: > 64 µg/mL

## CCC[C@@H]1C[C@@H](C(=O)N[C@@H]([C@H]2OC(SC)[C@H](O)C(O)C2O)[C@H](C)n2ccnc2)N(C)C1 (stereo partly drawn) [FSA-215064]
[1]
  MIC: 64 µg/mL (≈ 140 µM)
[2]
  MIC: > 64 µg/mL
[3]
  MIC: 16 µg/mL (≈ 35 µM)
[4]
  MIC: 8 µg/mL (≈ 17.5 µM)
[5]
  MIC: > 64 µg/mL
[6]
  MIC: > 64 µg/mL
[7]
  MIC: > 64 µg/mL
[8]
  MIC: > 64 µg/mL
[9]
  MIC: > 64 µg/mL

## CCC[C@@H]1C[C@@H](C(=O)N[C@@H]([C@H]2OC(SC)[C@H](O)C(O)C2O)[C@H](C)N(C)C)N(C)C1 (stereo partly drawn) [FSA-215070]
[1]
  MIC: 64 µg/mL (≈ 148 µM)
[2]
  MIC: 64 µg/mL (≈ 148 µM)
[10]
  MIC: 64 µg/mL (≈ 148 µM)
[3]
  MIC: 16 µg/mL (≈ 36.9 µM)
[4]
  MIC: 32 µg/mL (≈ 73.8 µM)
[5]
  MIC: > 64 µg/mL
[11]
  MIC: > 64 µg/mL
[6]
  MIC: > 64 µg/mL
[7]
  MIC: > 64 µg/mL
[8]
  MIC: > 64 µg/mL
[9]
  MIC: > 64 µg/mL
[12]
  MIC: > 64 µg/mL

## CCC[C@@H]1C[C@@H](C(=O)N[C@H]([C@H](C)NC(=O)CN)[C@H]2OC(SC)[C@H](O)C(O)C2O)N(C)C1 (stereo partly drawn) [FSA-215071]
[1]
  MIC: > 64 µg/mL
[2]
  MIC: > 64 µg/mL
[10]
  MIC: > 64 µg/mL
[3]
  MIC: 8 µg/mL (≈ 17.3 µM)
[4]
  MIC: 16 µg/mL (≈ 34.6 µM)
[5]
  MIC: > 64 µg/mL
[11]
  MIC: > 64 µg/mL
[6]
  MIC: > 64 µg/mL
[7]
  MIC: > 64 µg/mL
[8]
  MIC: > 64 µg/mL
[9]
  MIC: > 64 µg/mL
[12]
  MIC: > 64 µg/mL

## CCC[C@@H]1C[C@@H](C(=O)N[C@@H]([C@H]2OC(SC)[C@H](O)C(O)C2O)[C@H](C)n2cc(CN)nn2)N(C)C1 (stereo partly drawn) [FSA-215072]
[1]
  MIC: > 64 µg/mL
[2]
  MIC: > 64 µg/mL
[3]
  MIC: 8 µg/mL (≈ 16.4 µM)
[4]
  MIC: 8 µg/mL (≈ 16.4 µM)
[5]
  MIC: > 64 µg/mL
[6]
  MIC: > 64 µg/mL
[7]
  MIC: > 64 µg/mL
[8]
  MIC: > 64 µg/mL
[9]
  MIC: > 64 µg/mL

## CCC[C@@H]1C[C@@H](C(=O)N[C@H](CN)[C@H]2OC(SC)[C@H](O)C(O)C2O)N(C)C1 (stereo partly drawn) [FSA-215077]
[1]
  MIC: > 64 µg/mL
[2]
  MIC: > 64 µg/mL
[10]
  MIC: > 64 µg/mL
[3]
  MIC: > 64 µg/mL
[4]
  MIC: > 64 µg/mL
[5]
  MIC: > 64 µg/mL
[6]
  MIC: > 64 µg/mL
[7]
  MIC: > 64 µg/mL
[8]
  MIC: > 64 µg/mL
[9]
  MIC: > 64 µg/mL
[12]
  MIC: > 64 µg/mL

## CCC[C@@H]1C[C@@H](C(=O)N[C@H]([C@H](C)NC(=O)CNC)[C@H]2OC(SC)[C@H](O)C(O)C2O)N(C)C1 (stereo partly drawn) [FSA-215078a]
[1]
  MIC: > 64 µg/mL
[2]
  MIC: > 64 µg/mL
[10]
  MIC: > 64 µg/mL
[3]
  MIC: 16 µg/mL (≈ 33.6 µM)
[4]
  MIC: 8 µg/mL (≈ 16.8 µM)
[5]
  MIC: > 64 µg/mL
[11]
  MIC: > 64 µg/mL
[13]
  MIC: > 64 µg/mL
[6]
  MIC: > 64 µg/mL
[7]
  MIC: > 64 µg/mL
[8]
  MIC: > 64 µg/mL
[9]
  MIC: > 64 µg/mL
[12]
  MIC: > 64 µg/mL

## CCC[C@@H]1C[C@@H](C(=O)N[C@H]([C@H](C)NC(=O)CN(C)C)[C@H]2OC(SC)[C@H](O)C(O)C2O)N(C)C1 (stereo partly drawn) [FSA-215078b]
[1]
  MIC: > 64 µg/mL
[2]
  MIC: > 64 µg/mL
[10]
  MIC: > 64 µg/mL
[3]
  MIC: 8 µg/mL (≈ 16.3 µM)
[4]
  MIC: 8 µg/mL (≈ 16.3 µM)
[5]
  MIC: > 64 µg/mL
[11]
  MIC: > 64 µg/mL
[6]
  MIC: > 64 µg/mL
[7]
  MIC: > 64 µg/mL
[8]
  MIC: > 64 µg/mL
[9]
  MIC: > 64 µg/mL
[12]
  MIC: > 64 µg/mL

## CCC[C@@H]1C[C@@H](C(=O)N[C@@H]([C@H]2OC(SC)[C@H](O)C(O)C2O)[C@H](C)N(C)Cc2ccccc2[N+](=O)[O-])N(C)C1 (stereo partly drawn) [FSA-215081]
[1]
  MIC: 4 µg/mL (≈ 7.21 µM)
[2]
  MIC: 4 µg/mL (≈ 7.21 µM)
[10]
  MIC: 4 µg/mL (≈ 7.21 µM)
[3]
  MIC: 2 µg/mL (≈ 3.61 µM)
[4]
  MIC: 1 µg/mL (≈ 1.8 µM)
[5]
  MIC: > 64 µg/mL
[6]
  MIC: > 64 µg/mL
[7]
  MIC: > 64 µg/mL
[8]
  MIC: > 64 µg/mL
[9]
  MIC: > 64 µg/mL
[12]
  MIC: > 64 µg/mL

## CCC[C@@H]1C[C@@H](C(=O)N[C@H]([C@H](C)NC)[C@H]2OC(SC)[C@H](O)C(O)C2O)N(C)C1 (stereo partly drawn) [FSA-215082]
[1]
  MIC: 64 µg/mL (≈ 153 µM)
[2]
  MIC: 64 µg/mL (≈ 153 µM)
[10]
  MIC: > 64 µg/mL
[3]
  MIC: 16 µg/mL (≈ 38.1 µM)
[4]
  MIC: 32 µg/mL (≈ 76.3 µM)
[5]
  MIC: > 64 µg/mL
[11]
  MIC: > 64 µg/mL
[13]
  MIC: > 64 µg/mL
[6]
  MIC: > 64 µg/mL
[7]
  MIC: > 64 µg/mL
[8]
  MIC: > 64 µg/mL
[9]
  MIC: > 64 µg/mL
[12]
  MIC: > 64 µg/mL
